Laboratory results published in patent US20250223268A1, “4-Methylsulfonylbenzamide Compound, Preparation Method, Herbicidal Composition And Use” (Jiangsu Flag Chemical Industry Co., Ltd., priority 2022, published 2025).

Tests used:
Type in all cases: in vivo
Eclipta prostrata = test: Greenhouse herbicidal activity assay, post-emergence; details: Post-emergence test, rate 150 g a.i./hm^2; grade by fresh weight inhibition rate
Method in brief: (§1)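 Weeds were sown in nutrient soil in 7 cm pots and grown in a growth chamber to the 3-6 leaf stage, then foliar-sprayed, air-dried and returned to the chamber. Fresh weight inhibition was scored 14-21 days later in bands from A (≥80% to 100%) to E (<20%).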

Digitaria sanguinalis = test: as above; details: Post-emergence test, rate 150 g a.i./hm^2; grade by fresh weight inhibition rate
Method in brief: as §1

Leptochloa chinensis [1] = test: as above; details: Post-emergence test, rate 150 g a.i./hm^2; grade by fresh weight inhibition rate
Method in brief: as §1

Cyperus iria = test: as above; details: Post-emergence test, rate 150 g a.i./hm^2; grade by fresh weight inhibition rate
Method in brief: as §1

Echinochloa crusgalli [2] = test: as above; details: Post-emergence test, rate 150 g a.i./hm^2; grade by fresh weight inhibition rate
Method in brief: as §1

[3] = tested on: Oryza sativa subsp. japonica; test: Greenhouse herbicidal activity and crop safety comparison (Test Example 2); details: Rate 150 g/ha
Method in brief: (§2)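 Fresh weight inhibition, banded into grades A to E (E <20%), was rated 14-21 days after foliar spraying of 3-6 leaf plants, or 14-30 days after a soil spray applied 24 h post-sowing.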

[4] = tested on: Oryza sativa subsp. indica; test: as above; details: Rate 150 g/ha
Method in brief: as §2

Leptochloa chinensis [5] = test: as above; details: Rate 150 g/ha
Method in brief: as §2

Echinochloa crusgalli [6] = test: as above; details: Rate 150 g/ha
Method in brief: as §2

Compound | Control efficacy grade, Eclipta prostrata (Eclipta prostrata) | Control efficacy grade, Digitaria sanguinalis (Digitaria sanguinalis) | Control efficacy grade, Leptochloa chinensis (Leptochloa chinensis [1]) | Control efficacy grade, Cyperus iria (Cyperus iria) | Control efficacy grade, Echinochloa crusgalli (Echinochloa crusgalli [2]) | Oryza sativa subsp. japonica, grading of fresh weight inhibition rate (crop safety) [3] | Oryza sativa subsp. indica, grading of fresh weight inhibition rate (crop safety) [4] | Leptochloa chinensis, control efficacy grading (fresh weight inhibition rate) (Leptochloa chinensis [5]) | Echinochloa crusgalli, control efficacy grading (fresh weight inhibition rate) (Echinochloa crusgalli [6])
CCC(C)S(=O)(=O)c1c(S(C)(=O)=O)ccc(C(=O)Nc2nnc(C)o2)c1Cl (racemic) [Compound 3-24] | A (Fresh weight inhibition rate≥80% to 100%) | A (Fresh weight inhibition rate≥80% to 100%) | A (Fresh weight inhibition rate≥80% to 100%) | A (Fresh weight inhibition rate≥80% to 100%) | A (Fresh weight inhibition rate≥80% to 100%) | E (Fresh weight inhibition rate<20%) | E (Fresh weight inhibition rate<20%) | A (Fresh weight inhibition rate≥80% to 100%) | A (Fresh weight inhibition rate≥80% to 100%)
CCC(C)S(=O)(=O)c1c(S(C)(=O)=O)ccc(C(=O)Nc2nnco2)c1Cl (racemic) [Compound 3-290] | A (Fresh weight inhibition rate≥80% to 100%) | A (Fresh weight inhibition rate≥80% to 100%) | A (Fresh weight inhibition rate≥80% to 100%) | A (Fresh weight inhibition rate≥80% to 100%) | A (Fresh weight inhibition rate≥80% to 100%) | E (Fresh weight inhibition rate<20%) | E (Fresh weight inhibition rate<20%) | A (Fresh weight inhibition rate≥80% to 100%) | A (Fresh weight inhibition rate≥80% to 100%)
CCc1nnc(NC(=O)c2ccc(S(C)(=O)=O)c(S(=O)(=O)C(C)CC)c2Cl)o1 (racemic) [Compound 3-406] | A (Fresh weight inhibition rate≥80% to 100%) | A (Fresh weight inhibition rate≥80% to 100%) | A (Fresh weight inhibition rate≥80% to 100%) | A (Fresh weight inhibition rate≥80% to 100%) | A (Fresh weight inhibition rate≥80% to 100%) | E (Fresh weight inhibition rate<20%) | E (Fresh weight inhibition rate<20%) | A (Fresh weight inhibition rate≥80% to 100%) | A (Fresh weight inhibition rate≥80% to 100%)
CCC(C)S(=O)(=O)c1c(S(C)(=O)=O)ccc(C(=O)Nc2nnc(C(C)C)o2)c1Cl (racemic) [Compound 3-522] | A (Fresh weight inhibition rate≥80% to 100%) | C (Fresh weight inhibition rate≥40% to <60%) | A (Fresh weight inhibition rate≥80% to 100%) | A (Fresh weight inhibition rate≥80% to 100%) | A (Fresh weight inhibition rate≥80% to 100%) | E (Fresh weight inhibition rate<20%) | E (Fresh weight inhibition rate<20%) | A (Fresh weight inhibition rate≥80% to 100%) | A (Fresh weight inhibition rate≥80% to 100%)
CCC(C)S(=O)(=O)c1c(S(C)(=O)=O)ccc(C(=O)Nc2nnc(C3CC3)o2)c1Cl (racemic) [Compound 3-638] | A (Fresh weight inhibition rate≥80% to 100%) | B (Fresh weight inhibition rate≥260% to <80%) | A (Fresh weight inhibition rate≥80% to 100%) | A (Fresh weight inhibition rate≥80% to 100%) | A (Fresh weight inhibition rate≥80% to 100%) | E (Fresh weight inhibition rate<20%) | E (Fresh weight inhibition rate<20%) | A (Fresh weight inhibition rate≥80% to 100%) | A (Fresh weight inhibition rate≥80% to 100%)
CCCS(=O)(=O)c1c(S(C)(=O)=O)ccc(C(=O)Nc2nnc(C)o2)c1Cl [Compound 3-5] | A (Fresh weight inhibition rate≥80% to 100%) | A (Fresh weight inhibition rate≥80% to 100%) | A (Fresh weight inhibition rate≥80% to 100%) | A (Fresh weight inhibition rate≥80% to 100%) | A (Fresh weight inhibition rate≥80% to 100%) | E (Fresh weight inhibition rate<20%) | E (Fresh weight inhibition rate<20%) | A (Fresh weight inhibition rate≥80% to 100%) | A (Fresh weight inhibition rate≥80% to 100%)
Cc1nnc(NC(=O)c2ccc(S(C)(=O)=O)c(S(=O)(=O)Cc3ccccc3)c2Cl)o1 [Compound 3-71] | A (Fresh weight inhibition rate≥80% to 100%) |  | A (Fresh weight inhibition rate≥80% to 100%) | A (Fresh weight inhibition rate≥80% to 100%) |  | E (Fresh weight inhibition rate<20%) | E (Fresh weight inhibition rate<20%) | A (Fresh weight inhibition rate≥80% to 100%) | C (Fresh weight inhibition rate≥40% to <60%)
Cc1nnc(NC(=O)c2ccc(S(C)(=O)=O)c(S(=O)(=O)C3CCCCC3)c2Cl)o1 [Compound 3-96] | A (Fresh weight inhibition rate≥80% to 100%) |  | A (Fresh weight inhibition rate≥80% to 100%) | A (Fresh weight inhibition rate≥80% to 100%) |  | E (Fresh weight inhibition rate<20%) | E (Fresh weight inhibition rate<20%) | A (Fresh weight inhibition rate≥80% to 100%) | C (Fresh weight inhibition rate≥40% to <60%)
Cc1nnc(NC(=O)c2ccc(S(C)(=O)=O)c(S(=O)(=O)CCC#N)c2Cl)o1 [Compound 3-201] | A (Fresh weight inhibition rate≥80% to 100%) |  | A (Fresh weight inhibition rate≥80% to 100%) | A (Fresh weight inhibition rate≥80% to 100%) |  | E (Fresh weight inhibition rate<20%) | E (Fresh weight inhibition rate<20%) | A (Fresh weight inhibition rate≥80% to 100%) | C (Fresh weight inhibition rate≥40% to <60%)
CCc1nnc(NC(=O)c2ccc(S(C)(=O)=O)c(S(=O)(=O)CC(F)(F)F)c2Cl)o1 [Compound 3-443] | A (Fresh weight inhibition rate≥80% to 100%) |  | A (Fresh weight inhibition rate≥80% to 100%) | A (Fresh weight inhibition rate≥80% to 100%) |  | E (Fresh weight inhibition rate<20%) | E (Fresh weight inhibition rate<20%) | A (Fresh weight inhibition rate≥80% to 100%) | C (Fresh weight inhibition rate≥40% to <60%)
CS(=O)(=O)c1ccc(C(=O)Nc2nnc(C3CC3)o2)c(Cl)c1S(=O)(=O)CC1CC1 [Compound 3-650] | A (Fresh weight inhibition rate≥80% to 100%) | A (Fresh weight inhibition rate≥80% to 100%) | A (Fresh weight inhibition rate≥80% to 100%) | A (Fresh weight inhibition rate≥80% to 100%) | B (Fresh weight inhibition rate≥260% to <80%) | E (Fresh weight inhibition rate<20%) | E (Fresh weight inhibition rate<20%) | B (Fresh weight inhibition rate≥260% to <80%) | 
CS(=O)(=O)c1ccc(C(=O)Nc2nnc(C3CC3)o2)c(Cl)c1S(=O)(=O)C1CCC1 [Compound 3-660] | A (Fresh weight inhibition rate≥80% to 100%) |  | A (Fresh weight inhibition rate≥80% to 100%) | A (Fresh weight inhibition rate≥80% to 100%) |  | E (Fresh weight inhibition rate<20%) | E (Fresh weight inhibition rate<20%) | A (Fresh weight inhibition rate≥80% to 100%) | C (Fresh weight inhibition rate≥40% to <60%)
